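Cells were grown in 96-well plates and exposed to each compound for 48 hours at five concentrations; endpoints were interpolated linearly between bracketing concentrations, or set to the highest concentration if not reached. GI50 marks 50% less growth.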 Activity calls are given as the source filed them. Rule as the data show it: active = GI50 up to about 1.1 µM and inactive = higher.
Columns and labels:
Assay in all cases: NCI anticancer screen, dose series, 48 h
[1] = tested on: SK-OV-3
[2] = tested on: RXF 393
[3] = tested on: CCRF-CEM
[4] = tested on: CAKI-1
[5] = tested on: LOX IMVI
[6] = tested on: KM12
[7] = tested on: HOP-18
[8] = tested on: NCI-H226
[9] = tested on: SK-MEL-28
[10] = tested on: OVCAR-3
[11] = tested on: SNB-19
[12] = tested on: DMS-114
[13] = tested on: NCI-H23
[14] = tested on: M19-MEL
[15] = tested on: UACC-62
[16] = tested on: LXFL 529
[17] = tested on: NCI-H522
[18] = tested on: 786-0
[19] = tested on: UO-31
[20] = tested on: M14
[21] = tested on: Malme-3M
[22] = tested on: SK-MEL-2
[23] = tested on: SW-620
[24] = tested on: SN12C
[25] = tested on: ACHN
[26] = tested on: COLO 205
[27] = tested on: U-251
[28] = tested on: HOP-92
[29] = tested on: HCT-116
[30] = tested on: HL-60
[31] = tested on: SK-MEL-5
[32] = tested on: XF498
[33] = tested on: DLD-1
[34] = tested on: NCI-H460
[35] = tested on: SF-295
[36] = tested on: KM-20L2
[37] = tested on: RPMI-8226
[38] = tested on: OVCAR-4
[39] = tested on: SF-539
[40] = tested on: A549
[41] = tested on: SNB-78
[42] = tested on: OVCAR-5
[43] = tested on: DMS-273
[44] = tested on: IGROV-1
[45] = tested on: SR
[46] = tested on: K562
[47] = tested on: HT-29
[48] = tested on: UACC-257
[49] = tested on: OVCAR-8
[50] = tested on: MOLT-4
[51] = tested on: TK-10
[52] = tested on: SNB-75
[53] = tested on: A498
[54] = tested on: SF-268
[55] = tested on: RXF 631
[56] = tested on: EKVX
[57] = tested on: HCT-15
[58] = tested on: HCC 2998
[59] = tested on: HOP-62

COc1ccc([Se]c2ccc(OC)cc2OC)c(OC)c1
GI50 [1]: 34.3 µM (inactive) | GI50 [2]: 18.2 µM (inactive) | GI50 [3]: 20.2 µM (inactive) | GI50 [4]: 19.5 µM (inactive) | GI50 [5]: 24.6 µM (inactive) | GI50 [6]: 17.4 µM (inactive) | GI50 [7]: 20.2 µM (inactive) | GI50 [8]: 20 µM (inactive) | GI50 [9]: 15.8 µM (inactive) | GI50 [10]: 32 µM (inactive) | GI50 [11]: 86.7 µM (inactive) | GI50 [12]: 3.44 µM (inactive) | GI50 [13]: 29.9 µM (inactive) | GI50 [14]: 9.46 µM (inactive) | GI50 [15]: 11.1 µM (inactive) | GI50 [16]: 30.1 µM (inactive) | GI50 [17]: 13 µM (inactive) | GI50 [18]: 40.5 µM (inactive) | GI50 [19]: 18 µM (inactive) | GI50 [20]: 18.4 µM (inactive) | GI50 [21]: 14.9 µM (inactive) | GI50 [22]: 17.5 µM (inactive) | GI50 [23]: 4.66 µM (inactive) | GI50 [24]: 36.4 µM (inactive) | GI50 [25]: 45.3 µM (inactive) | GI50 [26]: 11.4 µM (inactive) | GI50 [27]: 21.6 µM (inactive) | GI50 [28]: 2.2 µM (inactive) | GI50 [29]: 12.1 µM (inactive) | GI50 [30]: 5.38 µM (inactive) | GI50 [31]: 22.2 µM (inactive) | GI50 [32]: 24.9 µM (inactive) | GI50 [33]: 17.4 µM (inactive) | GI50 [34]: 19.6 µM (inactive) | GI50 [35]: 8.57 µM (inactive) | GI50 [36]: 8.38 µM (inactive) | GI50 [37]: 20.7 µM (inactive) | GI50 [38]: 21.9 µM (inactive) | GI50 [39]: 22.6 µM (inactive) | GI50 [40]: 10.8 µM (inactive) | GI50 [41]: 22.6 µM (inactive) | GI50 [42]: > 100 µM (inactive) | GI50 [43]: 3.85 µM (inactive) | GI50 [44]: 5.37 µM (inactive) | GI50 [45]: 6.22 µM (inactive) | GI50 [46]: 10.5 µM (inactive) | GI50 [47]: 4.58 µM (inactive) | GI50 [48]: 61.2 µM (inactive) | GI50 [49]: 33.6 µM (inactive) | GI50 [50]: 5.36 µM (inactive) | GI50 [51]: 28.4 µM (inactive) | GI50 [52]: 9.02 µM (inactive) | GI50 [53]: 18.7 µM (inactive) | GI50 [54]: 35.6 µM (inactive) | GI50 [55]: 22.1 µM (inactive)

CN(C)c1ccc(/C=C2\CNC/C(=C\c3ccc(N(C)C)cc3)C2=O)cc1
GI50 [1]: > 100 µM (inactive) | GI50 [2]: 24 µM (inactive) | GI50 [3]: 25.8 µM (inactive) | GI50 [5]: 18.8 µM (inactive) | GI50 [6]: > 10 µM (inactive) | GI50 [7]: 18.9 µM (inactive) | GI50 [8]: 32.7 µM (inactive) | GI50 [9]: 22.8 µM (inactive) | GI50 [56]: > 100 µM (inactive) | GI50 [10]: 38.8 µM (inactive) | GI50 [12]: 18.8 µM (inactive) | GI50 [13]: > 100 µM (inactive) | GI50 [14]: 18.4 µM (inactive) | GI50 [15]: 34.5 µM (inactive) | GI50 [16]: 37.4 µM (inactive) | GI50 [18]: 16.8 µM (inactive) | GI50 [19]: 36.2 µM (inactive) | GI50 [20]: 86.7 µM (inactive) | GI50 [21]: > 100 µM (inactive) | GI50 [24]: 26.5 µM (inactive) | GI50 [25]: 24.4 µM (inactive) | GI50 [26]: 45.1 µM (inactive) | GI50 [27]: 14.4 µM (inactive) | GI50 [57]: 4.46 µM | GI50 [28]: 15.6 µM (inactive) | GI50 [29]: 16 µM (inactive) | GI50 [31]: 65.5 µM (inactive) | GI50 [32]: 16.4 µM (inactive) | GI50 [33]: 18.9 µM (inactive) | GI50 [34]: 15.5 µM (inactive) | GI50 [35]: 76.4 µM (inactive) | GI50 [36]: 30.1 µM (inactive) | GI50 [37]: 54.6 µM (inactive) | GI50 [38]: 13.3 µM (inactive) | GI50 [39]: 59.2 µM (inactive) | GI50 [40]: 27.4 µM (inactive) | GI50 [41]: > 100 µM (inactive) | GI50 [42]: > 100 µM (inactive) | GI50 [43]: 12.7 µM (inactive) | GI50 [44]: 22 µM (inactive) | GI50 [45]: 8.81 µM (inactive) | GI50 [46]: 24.2 µM (inactive) | GI50 [47]: 10.9 µM (inactive) | GI50 [48]: 22.5 µM (inactive) | GI50 [49]: 24.2 µM (inactive) | GI50 [58]: 29.3 µM (inactive) | GI50 [50]: 24.2 µM (inactive) | GI50 [51]: 33.3 µM (inactive) | GI50 [59]: > 100 µM (inactive) | GI50 [52]: 11.1 µM (inactive) | GI50 [53]: 17.6 µM (inactive) | GI50 [54]: > 10 µM (inactive) | GI50 [55]: 21.7 µM (inactive)

N#CCCN(CCC#N)c1ccc(C(=O)NN)cc1
GI50 [1]: > 100 µM (inactive) | GI50 [2]: > 100 µM (inactive) | GI50 [3]: > 100 µM (inactive) | GI50 [4]: > 100 µM (inactive) | GI50 [5]: > 100 µM (inactive) | GI50 [6]: > 100 µM (inactive) | GI50 [7]: > 100 µM (inactive) | GI50 [8]: > 100 µM (inactive) | GI50 [9]: > 100 µM (inactive) | GI50 [56]: > 100 µM (inactive) | GI50 [10]: > 100 µM (inactive) | GI50 [11]: > 100 µM (inactive) | GI50 [12]: > 100 µM (inactive) | GI50 [13]: > 100 µM (inactive) | GI50 [14]: > 100 µM (inactive) | GI50 [15]: > 100 µM (inactive) | GI50 [16]: > 100 µM (inactive) | GI50 [17]: > 100 µM (inactive) | GI50 [18]: > 100 µM (inactive) | GI50 [19]: > 100 µM (inactive) | GI50 [20]: > 100 µM (inactive) | GI50 [21]: > 100 µM (inactive) | GI50 [23]: > 100 µM (inactive) | GI50 [24]: > 100 µM (inactive) | GI50 [25]: > 100 µM (inactive) | GI50 [26]: > 100 µM (inactive) | GI50 [27]: > 100 µM (inactive) | GI50 [57]: > 100 µM | GI50 [28]: > 100 µM (inactive) | GI50 [29]: > 100 µM (inactive) | GI50 [30]: > 100 µM (inactive) | GI50 [31]: > 100 µM (inactive) | GI50 [32]: > 100 µM (inactive) | GI50 [33]: > 100 µM (inactive) | GI50 [34]: > 100 µM (inactive) | GI50 [35]: > 100 µM (inactive) | GI50 [36]: > 100 µM (inactive) | GI50 [37]: > 100 µM (inactive) | GI50 [38]: > 100 µM (inactive) | GI50 [39]: > 100 µM (inactive) | GI50 [40]: > 100 µM (inactive) | GI50 [41]: > 100 µM (inactive) | GI50 [42]: > 100 µM (inactive) | GI50 [43]: > 100 µM (inactive) | GI50 [44]: > 100 µM (inactive) | GI50 [46]: > 100 µM (inactive) | GI50 [47]: > 100 µM (inactive) | GI50 [48]: > 100 µM (inactive) | GI50 [49]: > 100 µM (inactive) | GI50 [58]: > 100 µM (inactive) | GI50 [50]: > 100 µM (inactive) | GI50 [51]: > 100 µM (inactive) | GI50 [59]: > 100 µM (inactive) | GI50 [52]: > 100 µM (inactive) | GI50 [53]: > 100 µM (inactive) | GI50 [54]: > 100 µM (inactive) | GI50 [55]: > 100 µM (inactive)

From ChEMBL document CHEMBL1201862, “PubChem BioAssay data set” (2004)
